Measurements as given in ChEMBL document CHEMBL1201862, “PubChem BioAssay data set” (2004).
Each block holds one compound with its values, some of them ahead of it. The source made the active and inactive calls.

Assays:
[1] = target: T1, Tyrosine-protein phosphatase non-receptor type 22 (Homo sapiens, UniProt Q9Y2R2); type: functional;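 note: confirmatory dose-response retesting of primary uHTS hits against LYP; potency is for inhibition of phosphatase activity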
T1 sequence (Q9Y2R2 whole entry): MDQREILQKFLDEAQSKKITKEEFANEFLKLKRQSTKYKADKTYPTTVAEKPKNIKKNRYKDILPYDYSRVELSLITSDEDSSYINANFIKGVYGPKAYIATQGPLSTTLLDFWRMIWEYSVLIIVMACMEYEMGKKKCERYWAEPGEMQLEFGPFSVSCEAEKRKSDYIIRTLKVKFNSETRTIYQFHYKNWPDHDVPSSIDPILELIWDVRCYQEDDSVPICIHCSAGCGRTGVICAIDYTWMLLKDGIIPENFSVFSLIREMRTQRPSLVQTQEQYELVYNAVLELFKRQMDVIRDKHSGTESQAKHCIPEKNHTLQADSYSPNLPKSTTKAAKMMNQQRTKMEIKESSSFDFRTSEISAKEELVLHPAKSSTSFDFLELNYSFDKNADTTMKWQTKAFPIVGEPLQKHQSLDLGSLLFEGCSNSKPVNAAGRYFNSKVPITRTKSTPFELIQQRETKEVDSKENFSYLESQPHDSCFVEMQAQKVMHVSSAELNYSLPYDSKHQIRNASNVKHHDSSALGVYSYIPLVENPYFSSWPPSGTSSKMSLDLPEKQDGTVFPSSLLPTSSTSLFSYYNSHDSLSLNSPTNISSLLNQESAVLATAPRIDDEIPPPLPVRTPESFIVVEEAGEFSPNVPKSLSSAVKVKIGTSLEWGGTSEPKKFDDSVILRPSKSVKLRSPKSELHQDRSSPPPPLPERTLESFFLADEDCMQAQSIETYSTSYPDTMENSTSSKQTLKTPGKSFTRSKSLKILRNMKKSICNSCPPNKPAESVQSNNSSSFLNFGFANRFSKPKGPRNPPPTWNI

[2] = target: Dual specificity tyrosine-phosphorylation-regulated kinase 1A (Rattus norvegicus, UniProt Q63470); type: biochemical, Homo sapiens
[3] = A549 cell cytotoxicity, dose response, cytotoxicity control, plate reader, cherry-pick, antagonist series (AID 743412); type: functional, cell-based
Caspase-8 = Caspase-8 (Homo sapiens, UniProt Q14790); assay: inhibitors of purified CASP8 protease – biochemical, Z-IETD-R110 fluorescence, cherry-picked samples, selectivity assay for caspase-6 inhibitor project, dose response (AID 743294)
[4] = target: 1-phosphatidylinositol 4,5-bisphosphate phosphodiesterase beta-3 (Homo sapiens, UniProt Q01970); assay: Fluorescence-based biochemical high throughput dose response assay to identify inhibitors of phospholipase C isozymes (PLC-B3).
[5] = target: T2, Sentrin-specific protease 7 (Homo sapiens, UniProt Q9BQF6); type: functional;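 note: Luminescence-based dose-response confirmation of ultra-high-throughput screening hits, measuring inhibition of SENP7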
T2 sequence (Q9BQF6 whole entry): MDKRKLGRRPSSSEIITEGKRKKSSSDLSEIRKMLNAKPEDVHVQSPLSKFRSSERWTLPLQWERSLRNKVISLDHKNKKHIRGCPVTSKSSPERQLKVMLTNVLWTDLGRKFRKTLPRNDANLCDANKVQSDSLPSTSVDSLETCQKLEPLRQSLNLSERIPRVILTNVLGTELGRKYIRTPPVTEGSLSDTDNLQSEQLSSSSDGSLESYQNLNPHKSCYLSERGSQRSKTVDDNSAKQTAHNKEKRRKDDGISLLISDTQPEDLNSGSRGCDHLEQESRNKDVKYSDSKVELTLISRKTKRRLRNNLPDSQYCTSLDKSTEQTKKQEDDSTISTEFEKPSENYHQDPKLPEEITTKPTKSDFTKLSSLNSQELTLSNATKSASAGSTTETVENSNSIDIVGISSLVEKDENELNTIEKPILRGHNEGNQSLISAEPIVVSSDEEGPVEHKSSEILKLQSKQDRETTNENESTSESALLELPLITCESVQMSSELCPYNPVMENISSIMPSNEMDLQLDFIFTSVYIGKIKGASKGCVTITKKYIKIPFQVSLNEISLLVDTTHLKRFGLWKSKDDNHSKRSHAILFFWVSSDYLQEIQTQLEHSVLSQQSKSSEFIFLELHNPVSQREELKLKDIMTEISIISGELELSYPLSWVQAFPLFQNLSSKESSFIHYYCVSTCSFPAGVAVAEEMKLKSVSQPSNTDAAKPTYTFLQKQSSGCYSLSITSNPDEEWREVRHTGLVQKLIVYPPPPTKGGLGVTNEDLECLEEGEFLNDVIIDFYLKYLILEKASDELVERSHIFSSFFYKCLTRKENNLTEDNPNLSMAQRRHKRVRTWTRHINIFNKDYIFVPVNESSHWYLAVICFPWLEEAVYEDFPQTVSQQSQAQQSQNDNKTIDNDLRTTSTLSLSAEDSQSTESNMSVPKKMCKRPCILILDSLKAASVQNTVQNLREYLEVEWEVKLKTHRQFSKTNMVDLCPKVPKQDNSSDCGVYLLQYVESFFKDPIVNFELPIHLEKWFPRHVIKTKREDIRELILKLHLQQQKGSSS

[6] = target: 5'-AMP-activated protein kinase catalytic subunit alpha-1 (Homo sapiens, UniProt Q13131); type: functional
[7] = target: Eukaryotic elongation factor 2 kinase (Homo sapiens, UniProt O00418); type: functional
[8] = target: Mast/stem cell growth factor receptor Kit (Homo sapiens, UniProt P10721); type: functional;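 note: KIT entry within a kinase panel assay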
[9] = target: Calcium/calmodulin-dependent protein kinase type II subunit delta (Homo sapiens, UniProt Q13557); type: functional
[10] = target: Fibroblast growth factor receptor 1 (Homo sapiens, UniProt P11362); type: functional
[11] = target: Tyrosine-protein kinase JAK3 (Homo sapiens, UniProt P52333); type: functional
[12] = target: Serine/threonine-protein kinase TAO1 (Homo sapiens, UniProt Q7L7X3); type: functional
[13] = target: Glycogen synthase kinase-3 alpha (Homo sapiens, UniProt P49840); type: functional;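 note: GSK3A result taken from a broad kinome-wide kinase panel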
[14] = target: Mitogen-activated protein kinase 1 (Homo sapiens, UniProt P28482); type: functional
[15] = target: Interleukin-1 receptor-associated kinase 1 (Homo sapiens, UniProt P51617); type: functional;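 note: IRAK1 tested as one member of a kinome panel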
Aurora kinase B = Aurora kinase B (Homo sapiens, UniProt Q96GD4); type: functional
[16] = target: Serine/threonine-protein kinase DCLK1 (Homo sapiens, UniProt O15075); type: functional;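 note: affinity for DCLK1 (listed as DCAMKL1) measured as one member of a kinome-wide kinase profiling panel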
[17] = target: Vascular endothelial growth factor receptor 1 (Homo sapiens, UniProt P17948); type: functional;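 note: measured within a kinome-wide profiling panel, FLT1 as the panel member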
[18] = target: Mitogen-activated protein kinase 12 (Homo sapiens, UniProt P53778); type: functional;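 note: measured as one member of a kinome-wide kinase profiling panel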
Mitogen-activated protein kinase 12, sequence (P53778 whole entry): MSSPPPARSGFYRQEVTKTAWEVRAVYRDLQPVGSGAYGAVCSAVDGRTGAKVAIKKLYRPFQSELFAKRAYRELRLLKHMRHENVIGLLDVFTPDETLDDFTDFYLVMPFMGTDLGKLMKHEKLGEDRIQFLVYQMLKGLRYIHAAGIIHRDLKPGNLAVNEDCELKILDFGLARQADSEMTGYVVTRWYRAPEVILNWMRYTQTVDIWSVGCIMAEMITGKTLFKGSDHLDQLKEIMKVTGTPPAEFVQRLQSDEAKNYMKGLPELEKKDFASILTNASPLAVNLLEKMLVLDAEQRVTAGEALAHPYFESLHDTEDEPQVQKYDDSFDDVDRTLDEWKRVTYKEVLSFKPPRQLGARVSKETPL

Mast/stem cell growth factor receptor Kit, sequence (P10721 whole entry): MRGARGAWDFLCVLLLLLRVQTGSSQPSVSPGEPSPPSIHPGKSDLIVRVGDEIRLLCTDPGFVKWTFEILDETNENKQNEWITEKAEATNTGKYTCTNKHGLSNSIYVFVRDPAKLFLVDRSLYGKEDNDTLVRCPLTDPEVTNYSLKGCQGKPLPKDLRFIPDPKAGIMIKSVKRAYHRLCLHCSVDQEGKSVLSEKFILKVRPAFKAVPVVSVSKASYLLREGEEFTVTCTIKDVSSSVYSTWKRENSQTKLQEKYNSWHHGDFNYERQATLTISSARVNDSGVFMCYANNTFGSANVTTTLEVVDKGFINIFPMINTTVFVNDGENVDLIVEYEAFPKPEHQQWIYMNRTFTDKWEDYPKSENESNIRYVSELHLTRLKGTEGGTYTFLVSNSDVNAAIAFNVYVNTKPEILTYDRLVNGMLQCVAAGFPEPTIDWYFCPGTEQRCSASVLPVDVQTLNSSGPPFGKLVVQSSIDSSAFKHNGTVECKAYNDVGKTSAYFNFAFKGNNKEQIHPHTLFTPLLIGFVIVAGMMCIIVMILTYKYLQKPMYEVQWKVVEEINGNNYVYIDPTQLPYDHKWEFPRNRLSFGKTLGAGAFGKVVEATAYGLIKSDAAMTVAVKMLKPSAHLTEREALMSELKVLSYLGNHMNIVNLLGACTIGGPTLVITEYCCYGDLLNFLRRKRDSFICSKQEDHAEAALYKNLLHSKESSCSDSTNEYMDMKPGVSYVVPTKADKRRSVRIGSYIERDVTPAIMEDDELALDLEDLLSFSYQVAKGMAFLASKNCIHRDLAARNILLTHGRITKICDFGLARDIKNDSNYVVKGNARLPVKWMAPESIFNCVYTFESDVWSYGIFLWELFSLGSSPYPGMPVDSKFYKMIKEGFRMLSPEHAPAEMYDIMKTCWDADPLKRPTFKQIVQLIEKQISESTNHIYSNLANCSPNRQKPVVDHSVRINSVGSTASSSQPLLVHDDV
Aurora kinase B, sequence (Q96GD4 whole entry): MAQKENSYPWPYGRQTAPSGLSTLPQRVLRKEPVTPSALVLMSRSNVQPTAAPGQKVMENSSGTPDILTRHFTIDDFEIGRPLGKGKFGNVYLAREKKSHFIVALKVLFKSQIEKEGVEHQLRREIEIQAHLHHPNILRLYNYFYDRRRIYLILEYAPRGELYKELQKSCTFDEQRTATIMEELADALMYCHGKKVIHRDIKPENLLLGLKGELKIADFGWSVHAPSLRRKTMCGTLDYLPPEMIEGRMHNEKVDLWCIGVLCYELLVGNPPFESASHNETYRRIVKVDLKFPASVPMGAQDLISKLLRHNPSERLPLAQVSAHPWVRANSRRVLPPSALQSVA
Serine/threonine-protein kinase TAO1, sequence (Q7L7X3 whole entry): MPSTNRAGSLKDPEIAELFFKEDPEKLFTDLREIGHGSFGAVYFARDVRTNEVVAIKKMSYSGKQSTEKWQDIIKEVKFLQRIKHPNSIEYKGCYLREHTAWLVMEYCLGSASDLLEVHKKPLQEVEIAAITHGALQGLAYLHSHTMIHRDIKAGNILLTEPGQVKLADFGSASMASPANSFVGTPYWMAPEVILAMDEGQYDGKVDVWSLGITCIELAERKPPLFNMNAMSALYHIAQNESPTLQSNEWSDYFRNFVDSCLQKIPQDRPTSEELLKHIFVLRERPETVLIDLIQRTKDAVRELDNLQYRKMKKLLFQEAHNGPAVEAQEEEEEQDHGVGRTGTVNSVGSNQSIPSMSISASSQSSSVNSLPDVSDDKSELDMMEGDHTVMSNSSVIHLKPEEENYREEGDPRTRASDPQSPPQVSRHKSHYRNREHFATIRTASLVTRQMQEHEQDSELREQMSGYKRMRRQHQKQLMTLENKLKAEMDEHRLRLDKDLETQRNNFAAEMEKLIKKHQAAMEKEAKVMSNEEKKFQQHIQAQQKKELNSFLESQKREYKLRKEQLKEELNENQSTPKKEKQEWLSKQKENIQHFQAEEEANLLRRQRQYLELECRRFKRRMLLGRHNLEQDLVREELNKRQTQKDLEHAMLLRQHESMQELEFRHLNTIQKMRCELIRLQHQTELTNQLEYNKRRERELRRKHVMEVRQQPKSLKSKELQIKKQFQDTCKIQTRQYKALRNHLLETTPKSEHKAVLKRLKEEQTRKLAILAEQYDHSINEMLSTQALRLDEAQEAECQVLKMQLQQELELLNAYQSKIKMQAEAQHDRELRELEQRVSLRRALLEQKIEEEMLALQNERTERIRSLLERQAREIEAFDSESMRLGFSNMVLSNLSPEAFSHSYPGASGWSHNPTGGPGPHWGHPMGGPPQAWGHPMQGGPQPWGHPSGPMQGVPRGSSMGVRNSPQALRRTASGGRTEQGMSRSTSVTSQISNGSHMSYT
Calcium/calmodulin-dependent protein kinase type II subunit delta, sequence (Q13557 whole entry): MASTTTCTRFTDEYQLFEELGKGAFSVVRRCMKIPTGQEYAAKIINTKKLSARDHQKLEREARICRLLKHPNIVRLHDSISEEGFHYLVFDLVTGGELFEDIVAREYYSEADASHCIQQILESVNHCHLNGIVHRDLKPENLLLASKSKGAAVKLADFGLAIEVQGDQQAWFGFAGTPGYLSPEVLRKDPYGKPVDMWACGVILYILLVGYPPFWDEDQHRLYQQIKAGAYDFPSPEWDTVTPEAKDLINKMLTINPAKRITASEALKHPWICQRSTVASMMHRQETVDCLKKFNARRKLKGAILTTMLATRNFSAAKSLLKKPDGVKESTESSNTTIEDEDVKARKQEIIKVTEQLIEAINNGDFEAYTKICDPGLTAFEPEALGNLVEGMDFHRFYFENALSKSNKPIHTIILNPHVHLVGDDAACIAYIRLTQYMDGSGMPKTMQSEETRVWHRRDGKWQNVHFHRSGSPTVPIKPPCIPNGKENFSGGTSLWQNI
Tyrosine-protein kinase JAK3, sequence (P52333 whole entry): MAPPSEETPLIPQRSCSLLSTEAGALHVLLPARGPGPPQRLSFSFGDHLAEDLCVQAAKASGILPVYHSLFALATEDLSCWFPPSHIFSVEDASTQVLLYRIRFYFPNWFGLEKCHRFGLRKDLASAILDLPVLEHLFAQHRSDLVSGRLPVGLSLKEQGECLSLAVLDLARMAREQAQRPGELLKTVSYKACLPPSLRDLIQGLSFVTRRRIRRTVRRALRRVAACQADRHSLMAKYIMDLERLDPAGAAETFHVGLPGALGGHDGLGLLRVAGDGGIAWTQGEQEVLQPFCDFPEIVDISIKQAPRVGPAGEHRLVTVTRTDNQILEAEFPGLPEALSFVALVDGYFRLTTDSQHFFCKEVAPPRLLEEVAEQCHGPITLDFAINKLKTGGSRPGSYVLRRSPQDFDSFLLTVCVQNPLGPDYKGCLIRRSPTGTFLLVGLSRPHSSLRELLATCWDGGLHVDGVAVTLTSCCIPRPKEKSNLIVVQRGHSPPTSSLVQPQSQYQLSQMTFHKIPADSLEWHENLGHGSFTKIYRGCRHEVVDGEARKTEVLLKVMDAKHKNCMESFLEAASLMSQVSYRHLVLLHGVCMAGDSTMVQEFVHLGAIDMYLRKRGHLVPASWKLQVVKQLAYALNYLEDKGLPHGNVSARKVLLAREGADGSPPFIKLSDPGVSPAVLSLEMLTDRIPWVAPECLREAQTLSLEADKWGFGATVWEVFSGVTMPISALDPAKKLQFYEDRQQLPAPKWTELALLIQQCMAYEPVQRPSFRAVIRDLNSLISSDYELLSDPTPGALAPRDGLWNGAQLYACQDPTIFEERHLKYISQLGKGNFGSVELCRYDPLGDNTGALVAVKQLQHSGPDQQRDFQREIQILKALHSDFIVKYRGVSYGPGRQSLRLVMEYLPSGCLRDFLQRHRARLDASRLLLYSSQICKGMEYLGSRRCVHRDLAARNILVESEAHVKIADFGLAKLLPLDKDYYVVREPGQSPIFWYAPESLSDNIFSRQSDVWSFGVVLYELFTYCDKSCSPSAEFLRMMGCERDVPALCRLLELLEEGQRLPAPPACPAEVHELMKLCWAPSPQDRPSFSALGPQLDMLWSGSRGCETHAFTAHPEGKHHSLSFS
Glycogen synthase kinase-3 alpha, sequence (P49840 whole entry): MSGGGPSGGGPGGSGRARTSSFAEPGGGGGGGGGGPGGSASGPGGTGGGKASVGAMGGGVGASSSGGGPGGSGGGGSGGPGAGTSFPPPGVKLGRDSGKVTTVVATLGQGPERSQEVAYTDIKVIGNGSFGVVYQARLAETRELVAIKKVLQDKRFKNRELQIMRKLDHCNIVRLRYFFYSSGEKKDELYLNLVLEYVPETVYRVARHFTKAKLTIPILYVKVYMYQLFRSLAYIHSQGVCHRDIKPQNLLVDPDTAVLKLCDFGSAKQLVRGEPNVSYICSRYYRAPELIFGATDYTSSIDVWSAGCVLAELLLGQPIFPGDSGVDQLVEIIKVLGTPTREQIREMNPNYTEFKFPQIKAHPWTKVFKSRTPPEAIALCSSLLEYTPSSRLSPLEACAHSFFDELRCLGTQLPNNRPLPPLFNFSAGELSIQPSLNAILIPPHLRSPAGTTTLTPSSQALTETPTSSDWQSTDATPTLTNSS

SMILES: CCCc1nc2c(=O)n(C)c(=O)nc-2n(C)n1
IC50 [1]: 1.78 µM (active)
AC50 [2]: 0.249 µM (active)
AC50 [3]: 6.05 µM (active)
AC50 (Caspase-8): 0.31 µM (active)
IC50 [4]: > 122 µM (inactive)

IC50 [5]: 18 µM (active)
SMILES: CC(=O)c1ccc(NC2=C(N3CCOCC3)C(=O)c3ccccc3C2=O)cc1

Ki [6]: > 5.01 µM (inactive)
Ki [7]: > 3.98 µM (inactive)
Ki [8]: 0.126 µM (active)
Ki [9]: > 6.31 µM (inactive)
Ki [10]: 3.98 µM (active)
Ki [11]: 0.2 µM (active)
Ki [12]: > 10 µM (inactive)
Ki [13]: > 7.94 µM (inactive)
Ki [14]: > 7.94 µM (inactive)
Ki [15]: > 7.94 µM (inactive)
Ki (Aurora kinase B): > 6.31 µM (inactive)
Ki [16]: > 10 µM (inactive)
Ki [17]: 0.126 µM (active)
Ki [18]: > 6.31 µM (inactive)
SMILES: COc1cc2ncn(-c3cc(OCc4ccccc4C(F)(F)F)c(C(N)=O)s3)c2cc1OC [GW843682X]
